Experimental data as given in patent US5808165A, “β-diketones, processes for making β-diketones and use of β-diketones as stabilizers for PVC” (Rhone-Poulenc Chimie, priority 1992, dated 1998).
Values belong to the molecule of their own block, whether it stands above or below them.

How the values were obtained:
Physical state = assay type: physicochemical
[1] = Vapor pressure at 180° C.; assay type: physicochemical
Experimental: Study of the physico-chemical properties of the β-diketones
Table 1 gives the vapor pressures at 180° C., which is a typical temperature at which PVC is employed.

[2] = Odor during storage / under operating conditions in PVC; conditions: during storage of the composition or transformation of the PVC
Text: In addition, under operating conditions in PVC, the β-diketone compositions according to the present invention can release substantially no odor, in sharp contrast to closely related compounds.

[3] = Acute toxicity LD50 per os in the rat; conditions: in vivo, po
Text: Generally, toxicity increases or decreases linearly with the number of carbon atoms in the compound. […] Certain β-diketones, which are not a part of the present invention, have a toxicity which is non-negligible but low. […] In sharp contrast, the toxicity of the β-diketone compounds according to the present invention can be so low as to be not measurable.

[4] = Solubility in dioctyl phthalate, "DOP"; assay type: physicochemical
[5] = Solubility in "one-pack" additive; assay type: physicochemical
[6] = Solubility of dibenzoylmethane in solvents (comparative)
[7] = Solubility in the principal constituents of an "all in one" additive; assay type: physicochemical; design: key: S: Mixture soluble; S1: Mixture soluble but viscous; S2: Mixture soluble but very viscous; I: Mixture insoluble
Text: Solubility in the principal constituents of an "all in one" additive
The purpose was to compare the behavior of a mixture based on a composition according to the invention with a mixture based on dibenzoylmethane, in preparing a mixture of stabilizing agents.
The mixtures were weighed in screw-capped bottles.
The bottles were placed in a shaking machine for agitation, for several hours.

Molecule: Isodecanoylacetophenone
Physical state (Physical state): Liquid | Vapor pressure at 180° C. [1]: 2 mmHg

Molecule: CC(C)CC(=O)CC(=O)c1ccccc1 [Isovaleroylacetophenone, isovalerylbenzoylmethane]
odor when degradation occurs [2]: intolerable odor | Physical state (Physical state): Liquid | LD50 [3]: 4880 mg/kg | Vapor pressure at 180° C. [1]: 28 mmHg

Molecule: Isoundecanoylacetophenone
Physical state (Physical state): Liquid | Vapor pressure at 180° C. [1]: 1.5 mmHg

Molecule: O=C(CC(=O)c1ccccc1)c1ccccc1 [Dibenzoylmethane, dibenzoylmethane]
Physical state (Physical state): Solid | Solubility in dioctyl phthalate, "DOP" ([4]; 3° C.): about 10 g/100 g solvent | Solubility in dioctyl phthalate, "DOP" ([4]; 23° C.): 10-20 g/100 g solvent | Solubility in "one-pack" additive ([5]; 3° C.): 5-9 g/100 g solvent | Solubility in "one-pack" additive ([5]; 23° C.): about 9 g/100 g solvent | Solubility in "one-pack" additive ([5]; -15° C.): < 5 g/100 g solvent | Vapor pressure at 180° C. [1]: 4 mmHg | Solubility ([6]; Decalin, 3° C.): < 5 g/100 g solution | Solubility ([6]; Decalin, 25° C.): 5-10 g/100 g solution | Solubility ([6]; Dioctyl adipate, DOA, 3° C.): 10-20 g/100 g solution | Solubility ([6]; Dioctyl adipate, DOA, 25° C.): 20-30 g/100 g solution | Solubility ([6]; Dioctyl adipate, DOA, -15° C.): 5-10 g/100 g solution | Solubility ([6]; Dioctyl phthalate, DOP, 25° C.): 10-20 g/100 g solution | Solubility ([6]; Dioctyl phthalate, DOP, -15° C.): 5-10 g/100 g solution | Solubility ([6]; Diphenyl decyl phosphite, "OS 150", 25° C., only 10% and 20% solutions examined): < 10 g/100 g solution | Solubility ([6]; Epoxidized soy oil, ESO, 3° C., probably high (crystallization was slow)): 10-20 g/100 g solution | Solubility ([6]; Epoxidized soy oil, ESO, 25° C.): 10-20 g/100 g solution | Solubility ([6]; Epoxidized soy oil, ESO, -15° C.): < 1 g/100 g solution | Solubility ([6]; Octyl trimellitate, OTM, 25° C.): 10-20 g/100 g solution | Solubility ([6]; Octyl trimellitate, OTM, -15° C.): 5-10 g/100 g solution | Solubility ([6]; Phenyl didecyl phosphite, "OS 300", 3° C., only 10% and 20% solutions examined): 10-20 g/100 g solution | Solubility ([6]; Phenyl didecyl phosphite, "OS 300", 25° C., only 10% and 20% solutions examined): 10-20 g/100 g solution | Solubility ([6]; Phenyl didecyl phosphite, "OS 300", -15° C., only 10% and 20% solutions examined): < 10 g/100 g solution | Solubility ([6]; Phosphite of butylcarbitol and bisphenol A, 3° C., only 10% and 20% solutions examined): 10-20 g/100 g solution | Solubility ([6]; Phosphite of butylcarbitol and bisphenol A, 25° C., only 10% and 20% solutions examined): 10-20 g/100 g solution | Solubility ([6]; Phosphite of butylcarbitol and bisphenol A, -15° C., only 10% and 20% solutions examined): about 10 g/100 g solution | Solubility ([6]; Tetralin, 3° C.): 10-20 g/100 g solution | Solubility ([6]; Tetralin, 25° C.): 20-30 g/100 g solution | Solubility ([6]; Tetralin, -15° C.): < 10 g/100 g solution | Solubility ([6]; Tridecyl phosphite, "OS 330", 25° C., only 10% and 20% solutions examined): < 10 g/100 g solution | Solubility ([6]; Trilauryl phosphite, "OS 360", 25° C., only 10% and 20% solutions examined): < 10 g/100 g solution | Solubility of mixture ([7]; Ba 0, Zn 0, Phosphite 1/2, β-diketone 1/2): I | Solubility of mixture ([7]; Ba 0, Zn 0, Phosphite 1/3, β-diketone 2/3): I | Solubility of mixture ([7]; Ba 0, Zn 0, Phosphite 2/3, β-diketone 1/3): I | Solubility of mixture ([7]; Ba 0, Zn 1/2, Phosphite 0, β-diketone 1/2): I | Solubility of mixture ([7]; Ba 0, Zn 2/3, Phosphite 0, β-diketone 1/3): I | Solubility of mixture ([7]; Ba 1/4, Zn 1/4, Phosphite 1/4, β-diketone 1/4): I | Solubility of mixture ([7]; Ba 1/8, Zn 1/8, Phosphite 3/8, β-diketone 3/8): I | Solubility of mixture ([7]; Ba 1/10, Zn 2/10, Phosphite 5/10, β-diketone 2/10): I | Solubility of mixture ([7]; Ba 1/10, Zn 3/10, Phosphite 0, β-diketone 6/10): I | Solubility of mixture ([7]; Ba 1/10, Zn 3/10, Phosphite 3/10, β-diketone 3/10): I

Molecule: CCCCCCCC(=O)CC(=O)c1ccccc1 [Octanoylacetophenone, Octanoylbenzoylmethane]
Physical state (Physical state): Solid | Solubility in dioctyl phthalate, "DOP" ([4]; 3° C.): 50-100 g/100 g solvent | Solubility in dioctyl phthalate, "DOP" ([4]; 23° C.): > 100 g/100 g solvent | Solubility in dioctyl phthalate, "DOP" ([4]; -15° C.): 12-25 g/100 g solvent | Solubility in "one-pack" additive ([5]; 3° C.): > 18 g/100 g solvent | Solubility in "one-pack" additive ([5]; 23° C.): > 18 g/100 g solvent | Solubility in "one-pack" additive ([5]; -15° C.): 9-18 g/100 g solvent | Vapor pressure at 180° C. [1]: 5.6 mmHg

Next, values leading:

Physical state (Physical state): Liquid | Solubility in dioctyl phthalate, "DOP" ([4]; 3° C.): > 100 g/100 g solvent | Solubility in dioctyl phthalate, "DOP" ([4]; 23° C.): > 100 g/100 g solvent | Solubility in dioctyl phthalate, "DOP" ([4]; -15° C.): 50-100 g/100 g solvent | Solubility in "one-pack" additive ([5]; 3° C.): > 18 g/100 g solvent | Solubility in "one-pack" additive ([5]; 23° C.): > 18 g/100 g solvent | Solubility in "one-pack" additive ([5]; -15° C.): > 18 g/100 g solvent | Vapor pressure at 180° C. [1]: 7 mmHg
Molecule: CCCCCCC(=O)CC(=O)c1ccccc1 [Heptanoylacetophenone, heptanoyl-benzoylmethane]

Physical state (Physical state): Liquid | Vapor pressure at 180° C. [1]: 4 mmHg
Molecule: Isononanoylacetophenone

Physical state (Physical state): Liquid | Vapor pressure at 180° C. [1]: 6 mmHg
Molecule: Isooctanoylbenzoylmethane [Isooctanoylacetophenone]
